# Results as given in US12398120B2, “Substituted hydantoinamides as ADAMTS7 antagonists” (BAYER AKTIENGESELLSCHAFT, priority 2019, dated 2025).
# Molecular target: ADAMTS4 (Homo sapiens (Human), UniProt O75173)
# Experiment: Selectivity assay for ADAMTS-7 modulators: ADAMTS4 (FRET substrate)
# Type: biochemical
# Settings: ADAMTS4 (R&D 4307-AD) 50 nM, substrate Dabcyl-EEVKAKVQPY-Glu(Edans)-NH2 1 μM, 120 min, 32° C.
# Outline: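 Activity read as rising fluorescence after a FRET substrate is cleaved by human ADAMTS4, with reactions started by substrate addition to wells holding compound or DMSO. Percent inhibition plotted against concentration gave IC50.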
# ADAMTS4, sequence (O75173 213-685): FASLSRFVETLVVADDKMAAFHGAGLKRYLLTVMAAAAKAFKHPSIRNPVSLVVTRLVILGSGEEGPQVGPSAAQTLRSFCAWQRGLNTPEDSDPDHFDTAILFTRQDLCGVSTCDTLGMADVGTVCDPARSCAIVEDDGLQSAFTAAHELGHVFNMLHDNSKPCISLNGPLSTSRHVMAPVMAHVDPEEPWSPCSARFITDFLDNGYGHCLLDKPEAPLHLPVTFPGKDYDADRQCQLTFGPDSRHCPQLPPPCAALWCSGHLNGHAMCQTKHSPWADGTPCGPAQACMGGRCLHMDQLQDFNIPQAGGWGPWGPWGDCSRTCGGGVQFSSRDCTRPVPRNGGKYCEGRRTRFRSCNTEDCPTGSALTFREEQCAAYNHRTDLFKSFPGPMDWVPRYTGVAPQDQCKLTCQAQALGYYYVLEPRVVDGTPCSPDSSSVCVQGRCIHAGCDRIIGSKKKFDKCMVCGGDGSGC
row,IC50 [µM],Compound
1,4.2,"Cc1ccc(C(=O)NCC2(c3ccnn3C)NC(=O)NC2=O)c(-c2ccc(C(F)(F)F)cc2)c1 (single isomer, unassigned; ent-5) [Example 308, Ent-5-Methyl-N-{[4-(1-Methyl-1H-Pyrazol-5-Yl)-2,5-Dioxoimidazolidin-4-Yl]Methyl}-4′-(Trifluoromethyl)[Biphenyl]-2-Carboxamide]"
2,2.7,"Cn1nccc1C1(CNC(=O)c2ccc(C(F)F)cc2-c2ccc(C(F)(F)F)cc2)NC(=O)NC1=O (single isomer, unassigned; ent-5) [Example 309, Ent-5-(Difluoromethyl)-N-{[4-(1-Methyl-1H-Pyrazol-5-Yl)-2,5-Dioxoimidazolidin-4-Yl]Methyl}-4′-(Trifluoromethyl)[Biphenyl]-2-Carboxamide]"
3,1.6,"Cc1cccc(C(=O)NCC2(c3nccn3C)NC(=O)NC2=O)c1-c1ccc(C(F)(F)F)cc1 (single isomer, unassigned; ent-6) [Example 133, Ent-6-Methyl-N-{[4-(1-Methyl-1H-Imidazol-2-Yl)-2,5-Dioxoimidazolidin-4-Yl]Methyl}-4′-(Trifluoromethyl)[1,1′-Biphenyl]-2-Carboxamide]"
4,1.3,"Cn1ccnc1C1(CNC(=O)c2cccc(F)c2-c2ccc(C(F)(F)F)cc2)NC(=O)NC1=O (single isomer, unassigned; ent-6) [Example 163, Ent-6-Fluoro-N-{[4-(1-Methyl-1H-Imidazol-2-Yl)-2,5-Dioxoimidazolidin-4-Yl]Methyl}-4′-(Trifluoromethyl)[Biphenyl]-2-Carboxamide]"
5,4.63,"Cn1nccc1C1(CNC(=O)c2cccc(F)c2-c2ccc(C(F)(F)F)cc2)NC(=O)NC1=O (single isomer, unassigned; ent-6) [Example 195, Ent-6-Fluoro-N-{[4-(1-Methyl-1H-Pyrazol-5-Yl)-2,5-Dioxoimidazolidin-4-Yl]Methyl}-4′-(Trifluoromethyl)[Biphenyl]-2-Carboxamide]"
6,23,"CC(C)C1(CNC(=O)c2cccc(F)c2-c2ccc(C(F)(F)F)cc2)NC(=O)NC1=O (single isomer, unassigned; ent-6) [Example 210, Ent-6-Fluoro-N-[(4-Isopropyl-2,5-Dioxoimidazolidin-4-Yl)Methyl]-4′-(Trifluoromethyl)[Biphenyl]-2-Carboxamide]"
7,23,"O=C1NC(=O)C(CNC(=O)c2cccc(F)c2-c2ccc(C(F)(F)F)cc2)(C2(F)CC2)N1 (single isomer, unassigned; ent-6) [Example 300, Ent-6-Fluoro-N-{[4-(1-Fluorocyclopropyl)-2,5-Dioxoimidazolidin-4-Yl]Methyl}-4′-(Trifluoromethyl)[Biphenyl]-2-Carboxamide]"
8,1.9,"Cn1nccc1C1(CNC(=O)c2cccc(Cl)c2-c2ccc(C(F)(F)F)cc2)NC(=O)NC1=O (single isomer, unassigned; ent-6) [Example 310, Ent-6-Chloro-N-{[4-(1-Methyl-1H-Pyrazol-5-Yl)-2,5-Dioxoimidazolidin-4-Yl]Methyl}-4′-(Trifluoromethyl)[Biphenyl]-2-Carboxamide]"
9,4.15,"Cc1nc(C)c(C2(CNC(=O)c3ccccc3-c3ccc(C(F)(F)F)cc3)NC(=O)NC2=O)s1 (stereo not drawn) [Example 47, Ent-N-{[4-(2,4-Dimethyl-1,3-Thiazol-5-Yl)-2,5-Dioxoimidazolidin-4-Yl]Methyl}-4′-(Trifluoromethyl)[Biphenyl]-2-Carboxamide]"
10,25,"CCC(C)C1(CNC(=O)c2ccccc2-c2ccc(C(F)(F)F)nc2)NC(=O)NC1=O (stereo not shown) [Example 51, Diamix-N-[(4-Sec-Butyl-2,5-Dioxoimidazolidin-4-Yl)Methyl]-2-[6-(Trifluoromethyl)Pyridin-3-Yl]Benzamide]"
11,32,"O=C1NC(=O)[C@](CNC(=O)c2ccccc2-c2ccc(Cl)cc2F)(C2CC2)N1 [Example 54, 4′-Chloro-N-{[(4R)-4-Cyclopropyl-2,5-Dioxoimidazolidin-4-Yl]Methyl}-2′-Fluoro[Biphenyl]-2-Carboxamide]"
12,31,"O=C1NC(=O)[C@](CNC(=O)c2ccncc2-c2ccc(Cl)cc2)(C2CC2)N1 [Example 56, 3-(4-Chlorophenyl)-N-{[(4R)-4-Cyclopropyl-2,5-Dioxoimidazolidin-4-Yl]Methyl}Isonicotinamide]"
13,12,"Cc1nscc1C1(CNC(=O)c2ccccc2-c2ccc(C(F)(F)F)nc2)NC(=O)NC1=O (stereo not drawn) [Example 64, Ent-N-{[4-(3-Methyl-1,2-Thiazol-4-Yl)-2,5-Dioxoimidazolidin-4-Yl]Methyl}-2-[6-(Trifluoromethyl)Pyridin-3-Yl]Benzamide]"
14,20,"Cc1nocc1C1(CNC(=O)c2ccccc2-c2ccc(C(F)(F)F)nc2)NC(=O)NC1=O (stereo not drawn) [Example 65, Ent-N-{[4-(3-Methyl-1,2-Oxazol-4-Yl)-2,5-Dioxoimidazolidin-4-Yl]Methyl}-2-[6-(Trifluoromethyl)Pyridin-3-Yl]Benzamide]"
15,8.2,"O=C1NC(=O)C(CNC(=O)c2ccccc2-c2ccc(C(F)(F)F)nc2)(c2ccnn2C2CC2)N1 (stereo not drawn) [Example 66, Ent-N-{[4-(1-Cyclopropyl-1H-Pyrazol-5-Yl)-2,5-Dioxoimidazolidin-4-Yl]Methyl}-2-[6-(Trifluoromethyl)Pyridin-3-Yl]Benzamide]"
16,11,"Cc1nocc1C1(CNC(=O)c2ccccc2-c2ccc(C(F)(F)F)cc2)NC(=O)NC1=O (stereo not drawn) [Example 68, Ent-N-{[4-(3-Methyl-1,2-Oxazol-4-Yl)-2,5-Dioxoimidazolidin-4-Yl]Methyl}-4′-(Trifluoromethyl)[Biphenyl]-2-Carboxamide]"
17,4.9,"Cc1conc1C1(CNC(=O)c2ccccc2-c2ccc(C(F)(F)F)cc2)NC(=O)NC1=O (stereo not drawn) [Example 69, Ent-N-{[4-(4-Methyl-1,2-Oxazol-3-Yl)-2,5-Dioxoimidazolidin-4-Yl]Methyl}-4′-(Trifluoromethyl)[Biphenyl]-2-Carboxamide]"
18,4.5,"Cc1cn(C)nc1C1(CNC(=O)c2ccccc2-c2ccc(C(F)(F)F)cc2)NC(=O)NC1=O (stereo not drawn) [Example 70, Ent-N-{[4-(1,4-Dimethyl-1H-Pyrazol-3-Yl)-2,5-Dioxoimidazolidin-4-Yl]Methyl}-4′-(Trifluoromethyl)[Biphenyl]-2-Carboxamide]"

# Continued, molecule first:
row,Compound,IC50 [µM]
1,"CC1CCC1C1(CNC(=O)c2ccccc2-c2ccc(C(F)(F)F)cc2)NC(=O)NC1=O (stereo not shown) [Example 13, Diamix-N-{[4-(2-Methylcyclobutyl)-2,5-Dioxoimidazolidin-4-Yl]Methyl}-4′-(Trifluoromethyl)[Biphenyl]-2-Carboxamide]",> 50
2,"Cc1ccc(-c2cnccc2C(=O)NC[C@@]2(C3CC3)NC(=O)NC2=O)cc1 [Example 19, N-{[(4R)-4-Cyclopropyl-2,5-Dioxoimidazolidin-4-Yl]Methyl}-3-(4-Methylphenyl)Isonicotinamide]",> 50
3,"O=C1NC(=O)[C@](CNC(=O)c2cc(F)c(F)cc2-c2ccc(C(F)(F)F)cc2)(C2CC2)N1 [Example 20, N-{[(4R)-4-Cyclopropyl-2,5-Dioxoimidazolidin-4-Yl]Methyl}-4,5-Difluoro-4′-(Trifluoromethyl)[Biphenyl]-2-Carboxamide]",28
4,"O=C1NC(=O)[C@](CNC(=O)c2ccccc2-c2ccc(OC(F)(F)F)cc2)(C2CC2)N1 [Example 21, N-{[(4R)-4-Cyclopropyl-2,5-Dioxoimidazolidin-4-Yl]Methyl}-4′-(Trifluoromethoxy)[Biphenyl]-2-Carboxamide]",> 50
5,"Cc1ccc(-c2cc(C)ccc2C(=O)NC[C@@]2(C3CC3)NC(=O)NC2=O)cc1 [Example 22, N-{[(4R)-4-Cyclopropyl-2,5-Dioxoimidazolidin-4-Yl]Methyl}-4′,5-Dimethyl[Biphenyl]-2-Carboxamide]",3.9
6,"O=C1NC(=O)[C@](CNC(=O)c2ccc(F)c(F)c2-c2ccc(C(F)(F)F)cc2)(C2CC2)N1 [Example 23, N-{[(4R)-4-Cyclopropyl-2,5-Dioxoimidazolidin-4-Yl]Methyl}-5,6-Difluoro-4′-(Trifluoromethyl)[Biphenyl]-2-Carboxamide]",12.5
7,"CC1CCC1C1(CNC(=O)c2ccccc2-c2ccc(C(F)(F)F)cc2)NC(=O)NC1=O (stereo not drawn) [Example 26, Ent-N-{[4-(2-Methylcyclobutyl)-2,5-Dioxoimidazolidin-4-Yl]Methyl}-4′-(Trifluoromethyl)[Biphenyl]-2-Carboxamide]",> 50
8,"Cc1ncsc1C1(CNC(=O)c2ccccc2-c2ccc(C(F)(F)F)cc2)NC(=O)NC1=O (stereo not drawn) [Example 27, Ent-N-{[4-(4-Methyl-1,3-Thiazol-5-Yl)-2,5-Dioxoimidazolidin-4-Yl]Methyl}-4′-(Trifluoromethyl)[Biphenyl]-2-Carboxamide]",9.1
9,"O=C1NC(=O)C(CNC(=O)c2ccccc2-c2ccc(C(F)(F)F)cc2)(c2ccnn2CC(F)(F)F)N1 (stereo not drawn) [Example 28, Ent-N-({2,5-Dioxo-4-[1-(2,2,2-Trifluoroethyl)-1H-Pyrazol-5-Yl]Imidazolidin-4-Yl}Methyl)-4′-(Trifluoromethyl)[Biphenyl]-2-Carboxamide]",11
10,"Cc1c(C2(CNC(=O)c3ccccc3-c3ccc(C(F)(F)F)cc3)NC(=O)NC2=O)cnn1C (stereo not drawn) [Example 31, Ent-N-{[4-(1,5-Dimethyl-1H-Pyrazol-4-Yl)-2,5-Dioxoimidazolidin-4-Yl]Methyl}-4′-(Trifluoromethyl)[Biphenyl]-2-Carboxamide]",6.5
11,"Cc1ncsc1C1(CNC(=O)c2ccccc2-c2ccc(C(F)(F)F)nc2)NC(=O)NC1=O (stereo not drawn) [Example 37, Ent-N-{[4-(4-Methyl-1,3-Thiazol-5-Yl)-2,5-Dioxoimidazolidin-4-Yl]Methyl}-2-[6-(Trifluoromethyl)Pyridin-3-Yl]Benzamide]",8.7
12,"CCC(C)C1(CNC(=O)c2ccccc2-c2ccc(C(F)(F)F)cc2)NC(=O)NC1=O (stereo not shown) [Example 38, Diamix-N-[(4-Sec-Butyl-2,5-Dioxoimidazolidin-4-Yl)Methyl]-4′-(Trifluoromethyl)[Biphenyl]-2-Carboxamide]",21
13,"O=C1NC(=O)C(CNC(=O)c2ccccc2-c2ccc(C(F)(F)F)cc2)(c2ccnn2C2CC2)N1 (stereo not drawn) [Example 46, Ent-N-{[4-(1-Cyclopropyl-1H-Pyrazol-5-Yl)-2,5-Dioxoimidazolidin-4-Yl]Methyl}-4′-(Trifluoromethyl)[Biphenyl]-2-Carboxamide]",4.8
